Measured values from patent publication US20240150300A1, “S-CONFIGURATION-CONTAINING AMINO BENZAMIDE PYRIDAZINONE COMPOUND, PREPARATION METHOD THEREFOR, AND PHARMACEUTICAL COMPOSITION AND APPLICATION THEREOF” (SHANGHAI INSTITUTE OF MATERIA MEDICA, CHINESE ACADEMY OF …, priority 2021, published 2024).

Experiments:
WILL-1 = assay: Antiproliferative activity, CCK-8, WILL-1; format: cell-based; conditions: WILL-1, Diffuse large B-cell lymphoma; read-out: Cytotoxicity (IC50 μM)
Experimental: (§1) The tumor cells used were purchased from commercial cell banks (HCT116 purchased from ATCC, SKM 1 purchased from JCRB). The growth inhibition of cells was detected using the CCK-8 method. The specific steps were as follows. Cells in the logarithmic growth phase were seeded into a 96 well culture plate at an appropriate density, with 90 μL/well. After overnight cultivation, different concentrations of drugs were added for treatment for 72 h, with each concentration in triplicate, and corresponding concentration of vehicle control and cell-free blank wells were also set. After the treatment, 10 μL of CCK-8 was added to each well and the plate was incubated in an incubator for 2-4 hours, and the optical density (OD value) at a wavelength of 450 nm was measured using a SpectraMax 190 microplate reader. […] The experiment was repeated twice, and the mean value and SD were calculated.
(§2) The testing method for antiproliferative activity was the same as that mentioned in Pharmacological Experiment Example 2, and the results are shown in Table 4 and FIGS. 2-3.

H9 = assay: Antiproliferative activity, CCK-8, H9; format: cell-based; conditions: H9, Human T lymphocyte line; read-out: Cytotoxicity (IC50 μM)
Experimental: as §1, §2

WILL-2 = assay: Antiproliferative activity, CCK-8, WILL-2; format: cell-based; conditions: WILL-2, Diffuse large B-cell lymphoma; read-out: Cytotoxicity (IC50 μM)
Experimental: as §1, §2

VMM39 = assay: Antiproliferative activity, CCK-8, VMM39; format: cell-based; conditions: VMM39, Melanoma; read-out: Cytotoxicity (IC50 μM)
Experimental: as §1, §2

NU-DHL-1 = assay: Antiproliferative activity, CCK-8, NU-DHL-1; format: cell-based; conditions: NU-DHL-1, Diffuse large B-cell lymphoma; read-out: Cytotoxicity (IC50 μM)
Experimental: as §1, §2

SK-MEL-2 = assay: Antiproliferative activity, CCK-8, SK-MEL-2; format: cell-based; conditions: SK-MEL-2, Melanoma; read-out: Cytotoxicity (IC50 μM)
Experimental: as §1, §2

U-2932 = assay: Antiproliferative activity, CCK-8, U-2932; format: cell-based; conditions: U-2932, Diffuse large B-cell lymphoma; read-out: Cytotoxicity (IC50 μM)
Experimental: as §1, §2

HuT78 = assay: Antiproliferative activity, CCK-8, HuT78; format: cell-based; conditions: HuT78, Human T-lymphocytic leukemia; read-out: Cytotoxicity (IC50 μM)
Experimental: as §1, §2

[1] = test system: human myelodysplastic syndrome cells SKM-1 transplanted tumor; assay: SKM-1 NOD/SCID mice transplanted tumor model; format: in vivo; conditions: oral 60 mg/kg qd, 18 days
EoL-1 = assay: Antiproliferative activity, CCK-8, EoL-1; format: cell-based; conditions: EoL-1, Chronic eosinophilic leukemia; read-out: Cytotoxicity (IC50 μM)
Experimental: as §1, §2

K-562 = assay: Antiproliferative activity, CCK-8, K-562; format: cell-based; conditions: K-562, Chronic myeloid leukemia; read-out: Cytotoxicity (IC50 μM)
Experimental: as §1, §2

A375 = assay: Antiproliferative activity, CCK-8, A375; format: cell-based, human; conditions: A375, Melanoma; read-out: Cytotoxicity (IC50 μM)
Experimental: as §1, §2

NOMO-1 = assay: Antiproliferative activity, CCK-8, NOMO-1; format: cell-based; conditions: NOMO-1, Acute monocytic leukemia; read-out: Cytotoxicity (IC50 μM)
Experimental: as §1, §2

HDAC10 = HDAC10 (Homo sapiens (Human), UniProt Q969S8); assay: HDAC subtype inhibitory activity (HTRF), HDAC10; format: biochemical
Sequence of HDAC10 (Q969S8 whole entry): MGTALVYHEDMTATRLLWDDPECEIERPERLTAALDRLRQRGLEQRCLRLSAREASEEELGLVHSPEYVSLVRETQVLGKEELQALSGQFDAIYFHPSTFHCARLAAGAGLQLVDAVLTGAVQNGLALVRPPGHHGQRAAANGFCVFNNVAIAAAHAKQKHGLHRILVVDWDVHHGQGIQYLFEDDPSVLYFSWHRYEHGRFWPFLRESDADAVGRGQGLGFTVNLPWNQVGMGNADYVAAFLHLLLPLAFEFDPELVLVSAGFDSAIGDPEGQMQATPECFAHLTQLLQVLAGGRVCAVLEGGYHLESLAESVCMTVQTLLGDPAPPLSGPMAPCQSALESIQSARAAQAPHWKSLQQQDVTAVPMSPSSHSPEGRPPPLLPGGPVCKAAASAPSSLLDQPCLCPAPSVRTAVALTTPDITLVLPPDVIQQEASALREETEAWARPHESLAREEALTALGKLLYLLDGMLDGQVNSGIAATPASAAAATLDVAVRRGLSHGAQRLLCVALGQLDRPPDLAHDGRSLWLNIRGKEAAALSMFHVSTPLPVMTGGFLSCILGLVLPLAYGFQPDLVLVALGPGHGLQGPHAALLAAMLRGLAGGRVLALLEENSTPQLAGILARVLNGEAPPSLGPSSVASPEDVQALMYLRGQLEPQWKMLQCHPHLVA
Experimental: (§3) Human recombinant HDAC family proteins with His and GST tags were expressed using insect baculovirus expression system, and a biologically active HDAC family recombinant protein was obtained through Ni affinity column protein purification. HTRF detection method was used with H3(1-21) K9Ac biotin as the substrate. […] Briefly, 20 μl of the activity testing system included the HDAC substrate (0.2 μM. 4 μl), the Human Recombinant Protein HDAC (2-5 ng)/μl.

KG-1 = assay: Antiproliferative activity, CCK-8, KG-1; format: cell-based; conditions: KG-1, Acute myeloid leukemia; read-out: Cytotoxicity (IC50 μM)
Experimental: as §1, §2

Mino = assay: Antiproliferative activity, CCK-8, Mino; format: cell-based; conditions: Mantle cell lymphoma, read-out: Cytotoxicity (IC50 μM)
Experimental: as §1, §2

CAKI-1 = assay: Antiproliferative activity, CCK-8, CAKI-1; format: cell-based; conditions: CAKI-1, Renal cell carcinoma; read-out: Cytotoxicity (IC50 μM)
Experimental: as §1, §2

REC-1 = assay: Antiproliferative activity, CCK-8, REC-1; format: cell-based; conditions: REC-1, Human mantle cell lymphoma; read-out: Cytotoxicity (IC50 μM)
Experimental: as §1, §2

SU-DHL-8 = assay: Antiproliferative activity, CCK-8, SU-DHL-8; format: cell-based; conditions: SU-DHL-8, Diffuse large B-cell lymphoma; read-out: Cytotoxicity (IC50 μM)
Experimental: as §1, §2

NCI-H929 = assay: Antiproliferative activity, CCK-8, NCI-H929; format: cell-based; conditions: NCI-H929, Human multiple myeloma; read-out: Cytotoxicity (IC50 μM)
Experimental: as §1, §2

RL = assay: Antiproliferative activity, CCK-8, RL; format: cell-based; conditions: Diffuse large B-cell lymphoma, read-out: Cytotoxicity (IC50 μM)
Experimental: as §1, §2

KMS-11 = assay: Antiproliferative activity, CCK-8, KMS-11; format: cell-based; conditions: KMS-11, Human multiple myeloma; read-out: Cytotoxicity (IC50 μM)
Experimental: as §1, §2

PC-9 = assay: Antiproliferative activity, CCK-8, PC-9; format: cell-based; conditions: PC-9, Lung cancer; read-out: Cytotoxicity (IC50 μM)
Experimental: as §1, §2

MDA-MB-453 = assay: Antiproliferative activity, CCK-8, MDA-MB-453; format: cell-based; conditions: MDA-MB-453, Breast cancer; read-out: Cytotoxicity (IC50 μM)
Experimental: as §1, §2

HDAC8 = HDAC8 (Homo sapiens (Human), UniProt Q9BY41); assay: HDAC subtype inhibitory activity (HTRF), HDAC8; format: biochemical
Sequence of HDAC8 (Q9BY41 whole entry): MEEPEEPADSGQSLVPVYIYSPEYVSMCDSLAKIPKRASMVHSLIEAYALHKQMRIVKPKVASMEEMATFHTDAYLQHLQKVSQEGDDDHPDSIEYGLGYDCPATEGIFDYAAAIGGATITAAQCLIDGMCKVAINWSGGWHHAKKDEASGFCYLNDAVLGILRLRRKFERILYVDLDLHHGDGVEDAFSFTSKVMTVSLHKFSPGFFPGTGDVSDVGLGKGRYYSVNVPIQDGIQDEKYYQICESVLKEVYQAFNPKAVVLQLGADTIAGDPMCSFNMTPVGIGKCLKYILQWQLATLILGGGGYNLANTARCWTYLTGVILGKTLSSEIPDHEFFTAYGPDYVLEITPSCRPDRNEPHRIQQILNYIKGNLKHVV
Experimental: as §3

HDAC2 = HDAC2 (Homo sapiens (Human), UniProt Q92769); assay: HDAC subtype inhibitory activity (HTRF), HDAC2; format: biochemical
Sequence of HDAC2 (Q92769 whole entry): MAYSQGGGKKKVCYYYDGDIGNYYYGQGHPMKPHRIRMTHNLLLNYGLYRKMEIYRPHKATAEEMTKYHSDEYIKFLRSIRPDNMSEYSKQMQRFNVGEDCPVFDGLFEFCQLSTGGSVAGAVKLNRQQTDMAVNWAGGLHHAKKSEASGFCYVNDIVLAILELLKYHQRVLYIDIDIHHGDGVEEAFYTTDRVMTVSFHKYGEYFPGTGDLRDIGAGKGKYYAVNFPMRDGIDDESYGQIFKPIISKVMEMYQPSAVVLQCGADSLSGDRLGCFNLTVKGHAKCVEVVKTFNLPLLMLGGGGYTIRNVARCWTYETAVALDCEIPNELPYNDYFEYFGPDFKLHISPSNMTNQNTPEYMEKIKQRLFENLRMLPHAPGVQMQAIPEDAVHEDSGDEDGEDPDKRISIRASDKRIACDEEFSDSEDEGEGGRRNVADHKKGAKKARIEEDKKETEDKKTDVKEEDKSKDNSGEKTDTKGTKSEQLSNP
Experimental: as §3

HDAC1 = HDAC1 (Homo sapiens (Human), UniProt Q13547); assay: In vitro histone deacetylase activity assay (HTRF), HDAC1; format: biochemical; conditions: H3(1-21) K9Ac biotin substrate
Sequence of HDAC1 (Q13547 whole entry): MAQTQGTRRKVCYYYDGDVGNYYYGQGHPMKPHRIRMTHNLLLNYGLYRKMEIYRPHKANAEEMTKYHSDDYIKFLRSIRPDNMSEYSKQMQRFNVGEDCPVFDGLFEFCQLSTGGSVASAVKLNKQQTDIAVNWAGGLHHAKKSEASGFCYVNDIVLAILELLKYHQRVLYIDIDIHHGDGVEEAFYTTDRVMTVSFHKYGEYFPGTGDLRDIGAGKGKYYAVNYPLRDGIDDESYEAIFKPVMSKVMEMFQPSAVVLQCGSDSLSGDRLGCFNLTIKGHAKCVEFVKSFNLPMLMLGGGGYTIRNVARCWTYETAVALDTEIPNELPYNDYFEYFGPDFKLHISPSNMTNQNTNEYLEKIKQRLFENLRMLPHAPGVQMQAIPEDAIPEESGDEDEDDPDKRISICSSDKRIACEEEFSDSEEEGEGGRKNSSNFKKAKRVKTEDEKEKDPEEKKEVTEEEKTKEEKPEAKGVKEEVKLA
Experimental: as §3

MO-91 = assay: Antiproliferative activity, CCK-8, MO-91; format: cell-based; conditions: MO-91, Acute myeloid leukemia; read-out: Cytotoxicity (IC50 μM)
Experimental: as §1, §2

CCRF-CEM = assay: Antiproliferative activity, CCK-8, CCRF-CEM; format: cell-based; conditions: T-cell acute lymphoblastic leukemia, read-out: Cytotoxicity (IC50 μM)
Experimental: as §1, §2

SNU-16 = assay: Antiproliferative activity, CCK-8, SNU-16; format: cell-based; conditions: SNU-16, gastric cancer; read-out: Cytotoxicity (IC50 μM)
Experimental: as §1, §2

`C[C@@H](c1ccc(C(=O)Nc2ccc(F)cc2N)cc1)n1nc(-c2ccc(CN(C)C)cc2)ccc1=O` [Compound I-1] showed an IC50 (WILL-1) of 0.116 ± 0.006 µM, an IC50 (H9) of 0.649 ± 0.044 µM and an IC50 (WILL-2) of 0.347 ± 0.217 µM. The IC50 (VMM39) was 0.46 ± 0.032 µM, the IC50 (NU-DHL-1) was 0.243 µM and the IC50 (SK-MEL-2) was 0.799 ± 0.042 µM. The IC50 (U-2932) was 0.214 ± 0.001 µM, the IC50 (HuT78) was 0.769 ± 0.461 µM and the “relative tumor proliferation rate (T/C)” value [1] was 11.78%. It also gave an IC50 (EoL-1) of 0.158 µM, an IC50 (K-562) of 0.473 ± 0.171 µM and an IC50 (A375) of 0.556 ± 0.018 µM. The IC50 (NOMO-1) was 0.523 ± 0.12 µM, the IC50 (HDAC10) was over 100000 nM and the IC50 (KG-1) was 0.95 ± 0.066 µM. The IC50 (Mino) was 0.142 ± 0.013 µM, the IC50 (CAKI-1) was 0.594 ± 0.011 µM and the IC50 (REC-1) was 0.381 µM. It also gave an IC50 (SU-DHL-8) of 0.443 ± 0.185 µM, an IC50 (NCI-H929) of 0.642 ± 0.025 µM and an IC50 (RL) of 0.24 ± 0.019 µM. For the same compound, the IC50 (KMS-11) was 0.671 ± 0.01 µM, the IC50 (PC-9) was 0.461 ± 0.034 µM and the IC50 (MDA-MB-453) was 0.498 ± 0.036 µM. For the same compound, the IC50 (HDAC8) was over 100000 nM, the IC50 (HDAC2) was 90 ± 6 nM and the IC50 (HDAC1) was 57.6 ± 4.42 nM. The IC50 (MO-91) was 0.427 ± 0.163 µM, the IC50 (CCRF-CEM) was 0.382 ± 0.067 µM and the IC50 (SNU-16) was 0.675 ± 0.064 µM.
